Reference: patent publication US20030186967A1, “Acylresorcinol derivatives are selective vitronectin receptor inhibitors” (American Home Products Corporation, priority 1998, published 2003)

Target: T1, Vitronectin receptor αVβ3 (Homo sapiens, UniProt P05106+P06756)
T1 construct: expressed in transfected cells; host or cells: 512P5 cells (plasma membrane preparation)
Assay: Vitronectin Receptor αVβ3 Binding Assay
Conditions: read-out: VnR (IC50μM)

T1 sequence (P06756 31-889 limits assumed): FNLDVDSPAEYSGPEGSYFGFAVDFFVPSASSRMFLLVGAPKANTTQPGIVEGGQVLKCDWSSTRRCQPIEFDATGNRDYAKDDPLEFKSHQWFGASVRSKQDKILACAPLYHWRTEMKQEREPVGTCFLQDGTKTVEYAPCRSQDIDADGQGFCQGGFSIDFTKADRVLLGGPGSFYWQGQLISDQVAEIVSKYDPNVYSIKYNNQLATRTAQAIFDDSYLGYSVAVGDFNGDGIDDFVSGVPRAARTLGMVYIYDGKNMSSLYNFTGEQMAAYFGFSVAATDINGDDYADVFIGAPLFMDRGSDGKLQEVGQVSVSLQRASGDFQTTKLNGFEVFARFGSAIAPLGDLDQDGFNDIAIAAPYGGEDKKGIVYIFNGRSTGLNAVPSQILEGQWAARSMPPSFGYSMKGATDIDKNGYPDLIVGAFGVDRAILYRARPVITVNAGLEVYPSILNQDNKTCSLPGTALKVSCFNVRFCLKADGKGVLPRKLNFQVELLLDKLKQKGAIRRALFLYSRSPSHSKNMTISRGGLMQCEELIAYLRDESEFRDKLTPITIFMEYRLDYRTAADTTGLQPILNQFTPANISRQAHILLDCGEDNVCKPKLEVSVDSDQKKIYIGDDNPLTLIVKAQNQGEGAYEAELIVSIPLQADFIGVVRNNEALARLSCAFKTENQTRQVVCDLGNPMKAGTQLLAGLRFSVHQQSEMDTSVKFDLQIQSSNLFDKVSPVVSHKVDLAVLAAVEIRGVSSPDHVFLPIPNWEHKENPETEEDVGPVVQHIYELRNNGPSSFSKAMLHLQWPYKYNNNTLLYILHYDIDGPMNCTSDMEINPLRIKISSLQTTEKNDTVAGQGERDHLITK
T1 sequence (P06756 891-1048 partner limits assumed): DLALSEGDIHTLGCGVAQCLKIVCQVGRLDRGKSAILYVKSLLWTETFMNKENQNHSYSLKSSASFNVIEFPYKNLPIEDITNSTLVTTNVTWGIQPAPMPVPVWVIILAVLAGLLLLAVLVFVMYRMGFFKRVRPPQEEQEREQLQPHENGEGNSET
T1 sequence (P05106 27-788): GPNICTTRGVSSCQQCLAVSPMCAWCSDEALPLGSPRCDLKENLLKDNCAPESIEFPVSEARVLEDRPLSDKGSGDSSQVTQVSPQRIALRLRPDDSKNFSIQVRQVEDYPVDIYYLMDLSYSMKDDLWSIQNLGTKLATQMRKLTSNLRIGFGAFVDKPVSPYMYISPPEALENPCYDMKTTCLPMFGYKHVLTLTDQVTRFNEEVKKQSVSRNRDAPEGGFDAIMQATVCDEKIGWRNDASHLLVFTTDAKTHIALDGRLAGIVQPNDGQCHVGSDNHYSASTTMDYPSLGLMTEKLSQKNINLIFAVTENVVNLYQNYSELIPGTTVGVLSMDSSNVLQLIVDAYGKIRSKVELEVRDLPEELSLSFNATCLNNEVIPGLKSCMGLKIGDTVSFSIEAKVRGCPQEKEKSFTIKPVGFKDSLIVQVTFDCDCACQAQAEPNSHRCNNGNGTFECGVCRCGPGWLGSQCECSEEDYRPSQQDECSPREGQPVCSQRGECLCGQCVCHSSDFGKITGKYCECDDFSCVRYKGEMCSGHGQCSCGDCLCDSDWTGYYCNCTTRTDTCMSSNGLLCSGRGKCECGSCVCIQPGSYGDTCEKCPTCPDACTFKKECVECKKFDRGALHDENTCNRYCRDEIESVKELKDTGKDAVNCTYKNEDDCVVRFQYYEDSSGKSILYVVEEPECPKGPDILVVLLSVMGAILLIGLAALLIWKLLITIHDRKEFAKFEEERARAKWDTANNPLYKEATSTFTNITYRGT

| SMILES | IC50 [µM] |
| --- | --- |
| O=C(N[C@@H](CNC(=O)c1ccc(OCCNc2ncccn2)cc1O)C(=O)O)Oc1ccccc1 [Example 54, (2S)-3-({2-hydroxy-4-[2-(pyrimidin-2-ylamino)ethoxy]benzoyl}amino)-2-[(phenoxycarbonyl)amino]propanoic acid] | 34 |
| O=C(N[C@@H](CNC(=O)c1ccc(OCCNc2ncccn2)cc1O)C(=O)O)OCc1ccccc1 [Example 55, (2S)-2-{[(benzyloxy)carbonyl]amino}-3-({2-hydroxy-4-[2-(pyrimidin-2-ylamino)ethoxy]benzoyl}amino)propanoic acid] | 101 |
| CC(C)COC(=O)N[C@@H](CNC(=O)c1ccc(OCCNc2ncccn2)cc1O)C(=O)O [Example 56, (2S)-3-({2-hydroxy-4-[2-(pyrimidin-2-ylamino)ethoxy]benzoyl}amino)-2-[(isobutoxycarbonyl)amino]propanoic acid] | 85.8 |
| CCCCOC(=O)N[C@@H](CNC(=O)c1ccc(OCCNc2ncccn2)cc1O)C(=O)O [Example 59, (2S)-2-[(butoxycarbonyl)amino]-3-({2-hydroxy-4-[2-(pyrimidin-2-ylamino)ethoxy]benzoyl}amino)propanoic acid] | 100 |
| O=C(Nc1ccccc1)N[C@@H](CNC(=O)c1ccc(OCCNc2ncccn2)cc1O)C(=O)O [Example 71, (2S)-2-[(anilinocarbonyl)amino]-3-({2-hydroxy-4-[2-(pyrimidin-2-ylamino)ethoxy]-benzoyl}amino)propanoic acid] | > 1 |
| CC(C)(C)NC(=O)N[C@@H](CNC(=O)c1ccc(OCCNc2ncccn2)cc1O)C(=O)O [Example 72, (2S)-2-{[(tert-butylamino)carbonyl]amino}-3-({2-hydroxy-4-[2-(pyrimidin-2-ylamino)ethoxy]benzoyl}amino)propanoic acid] | > 1 |
| CCCCNC(=O)N[C@@H](CNC(=O)c1ccc(OCCNc2ncccn2)cc1O)C(=O)O [Example 73, (2S)-2-{[(butylamino)carbonyl]amino}-3-({2-hydroxy-4-[2-(pyrimidin-2-ylamino)ethoxy]benzoyl}amino)propanoic acid] | > 1 |
| Cc1ccccc1NC(=O)N[C@@H](CNC(=O)c1ccc(OCCNc2ncccn2)cc1O)C(=O)O [Example 78, (2S)-3-({2-hydroxy-4-[2-(pyrimidin-2-ylamino)ethoxy]benzoyl}amino)-2-[(2-toluidinocarbonyl)amino]propanoic acid] | > 1 |
| COc1ccccc1NC(=O)N[C@@H](CNC(=O)c1ccc(OCCNc2ncccn2)cc1O)C(=O)O [Example 79, (2S)-3-({2-hydroxy-4-[2-(pyrimidin-2-ylamino)ethoxy]benzoyl}amino)-2-{[(2-methoxyanilino)carbonyl]amino}propanoic acid] | > 1 |
| O=C(Nc1ccccc1Cl)N[C@@H](CNC(=O)c1ccc(OCCNc2ncccn2)cc1O)C(=O)O [Example 80, (2S)-2-{[(2-chloroanilino)carbonyl]amino}-3-({2-hydroxy-4-[2-(pyrimidin-2-ylamino)ethoxy]benzoyl}amino)propanoic acid] | > 1 |
| O=C(Nc1ccccc1Br)N[C@@H](CNC(=O)c1ccc(OCCNc2ncccn2)cc1O)C(=O)O [Example 81, (2S)-2-{[(2-bromoanilino)carbonyl]amino}-3-({2-hydroxy-4-[2-(pyrimidin-2-ylamino)ethoxy]benzoyl}amino)propanoic acid] | > 1 |
| O=C(Nc1ccccc1-c1ccccc1)N[C@@H](CNC(=O)c1ccc(OCCNc2ncccn2)cc1O)C(=O)O [Example 82, (2S)-2-{[([1,1′-biphenyl]-2-ylamino)carbonyl]amino}-3-({2-hydroxy-4-[2-(pyrimidin-2-ylamino)ethoxy]benzoyl}amino)propanoic acid] | > 1 |
| Cc1ccc(NC(=O)N[C@@H](CNC(=O)c2ccc(OCCNc3ncccn3)cc2O)C(=O)O)cc1 [Example 83, (2S)-3-({2-hydroxy-4-[2-(pyrimidin-2-ylamino)ethoxy]benzoyl}amino)-2-[(4-toluidinocarbonyl)amino]propanoic acid] | > 1 |
| O=C(Nc1ccc(OC(F)(F)F)cc1)N[C@@H](CNC(=O)c1ccc(OCCNc2ncccn2)cc1O)C(=O)O [Example 85, (2S)-3-({2-hydroxy-4-[2-(pyrimidin-2-ylamino)ethoxy]benzoyl}amino)-2-({[4-(trifluoromethoxy)anilino]carbonyl}amino)propanoic acid] | > 1 |
| O=C(Nc1ccc(Cl)cc1)N[C@@H](CNC(=O)c1ccc(OCCNc2ncccn2)cc1O)C(=O)O [Example 86, (2S)-2-{[(4-chloroanilino)carbonyl]amino}-3-({2-hydroxy-4-[2-(pyrimidin-2-ylamino)ethoxy]benzoyl}amino)propanoic acid] | > 1 |
| O=C(Nc1ccc(F)cc1)N[C@@H](CNC(=O)c1ccc(OCCNc2ncccn2)cc1O)C(=O)O [Example 87, (2S)-2-{[(4-fluoroanilino)carbonyl]amino}-3-({2-hydroxy-4-[2-(pyrimidin-2-ylamino)ethoxy]benzoyl}amino)propanoic acid] | > 1 |
| CC(=O)c1ccc(NC(=O)N[C@@H](CNC(=O)c2ccc(OCCNc3ncccn3)cc2O)C(=O)O)cc1 [Example 88, (2S)-2-{[(4-acetylanilino)carbonyl]amino}-3-({2-hydroxy-4-[2-(pyrimidin-2-ylamino)ethoxy]benzoyl}amino)propanoic acid] | > 1 |
| O=C(NC1CCCCC1)N[C@@H](CNC(=O)c1ccc(OCCNc2ncccn2)cc1O)C(=O)O [Example 90, (2S)-2-{[(cyclohexylamino)carbonyl]amino}-3-({2-hydroxy-4-[2-(pyrimidin-2-ylamino)ethoxy]benzoyl}amino)propanoic acid] | > 1 |
| O=C(NCc1ccccc1)N[C@@H](CNC(=O)c1ccc(OCCNc2ncccn2)cc1O)C(=O)O [Example 92, (2S)-2-{[(benzylamino)carbonyl]amino}-3-({2-hydroxy-4-[2-(pyrimidin-2-ylamino)ethoxy]benzoyl}amino)propanoic acid] | > 1 |
| O=C(NCCc1ccccc1)N[C@@H](CNC(=O)c1ccc(OCCNc2ncccn2)cc1O)C(=O)O [Example 93, (2S)-3-({2-hydroxy-4-[2-(pyrimidin-2-ylamino)ethoxy]benzoyl}amino)-2-({[(2phenylethyl)amino]carbonyl}amino)propanoic acid] | > 1 |
| CCCCCCCCNC(=O)N[C@@H](CNC(=O)c1ccc(OCCNc2ncccn2)cc1O)C(=O)O [Example 94, (2S)-3-({2-hydroxy-4-[2-(pyrimidin-2-ylamino)ethoxy]benzoyl}amino)-2-{[(octylamino)carbonyl]amino}propanoic acid] | > 1 |

The remaining lines, values ahead:

| IC50 [µM] | SMILES |
| --- | --- |
| 1.27 | O=C(Nc1ccc(Cl)cc1)N[C@@H](CNC(=O)c1ccc(OCCNC2=NCCCN2)cc1O)C(=O)O [Example 30, (2S)-2-{[(4-chloroanilino)carbonyl]amino}-3-({2-hydroxy-4-[2-(1,4,5,6-tetrahydropyrimidin-2-ylamino)ethoxy]benzoyl}amino)propanoic acid] |
| 0.261 | O=C(Nc1cccc2ccccc12)N[C@@H](CNC(=O)c1ccc(OCCNC2=NCCCN2)cc1O)C(=O)O [Example 31, (2S)-3-({2-hydroxy-4-[2-(1,4,5,6-tetrahydropyrimidin-2-ylamino)ethoxy]benzoyl}-amino)-2-{[(1-naphthylamino)carbonyl]amino}propanoic acid] |
| 34 | CC(C)(C)COC(=O)N[C@@H](CNC(=O)c1ccc(OCCNc2ncccn2)cc1O)C(=O)O [Example 53, (2S)-3-({2-hydroxy-4-[2-(pyrimidin-2-ylamino)ethoxy]benzoyl}-amino)-2-{[(neopentyloxy)carbonyl]amino}propanoic acid] |
| 100 | CCCCCCCCOC(=O)N[C@@H](CNC(=O)c1ccc(OCCNc2ncccn2)cc1O)C(=O)O [Example 58, (2S)-3-({2-hydroxy-4-[2-(pyrimidin-2-ylamino)ethoxy]benzoyl}amino)-2-{[(octyloxy)carbonyl]amino}propanoic acid] |
| 100 | CCCCCCOC(=O)N[C@@H](CNC(=O)c1ccc(OCCNc2ncccn2)cc1O)C(=O)O [Example 62, (2S)-2-{[(hexyloxy)carbonyl]amino}-3-({2-hydroxy-4-[2-(pyrimidin-2-ylamino)-ethoxy]benzoyl}amino)propanoic acid] |
| 100 | COC(=O)N[C@@H](CNC(=O)c1ccc(OCCNc2ncccn2)cc1O)C(=O)O [Example 65, (2S)-3-({2-hydroxy-4-[2-(pyrimidin-2-ylamino)ethoxy]benzoyl}amino)-2-[(methoxycarbonyl)amino]propanoic acid] |
| 100 | CCOC(=O)N[C@@H](CNC(=O)c1ccc(OCCNc2ncccn2)cc1O)C(=O)O [Example 66, (2S)-2-[(ethoxycarbonyl)amino]-3-({2-hydroxy-4-[2-(pyrimidin-2-ylamino)-ethoxy]benzoyl}amino)propanoic acid] |
| 100 | CCCOC(=O)N[C@@H](CNC(=O)c1ccc(OCCNc2ncccn2)cc1O)C(=O)O [Example 67, (2S)-3-({2-hydroxy-4-[2-(pyrimidin-2-ylamino)ethoxy]benzoyl}amino)-2-[(propoxycarbonyl)amino]propanoic acid] |
| 100 | CC(C)OC(=O)N[C@@H](CNC(=O)c1ccc(OCCNc2ncccn2)cc1O)C(=O)O [Example 68, (2S)-3-({2-hydroxy-4-[2-(pyrimidin-2-ylamino)ethoxy]benzoyl}amino)-2-[(isopropoxycarbonyl)amino]propanoic acid] |
| 100 | C=CCOC(=O)N[C@@H](CNC(=O)c1ccc(OCCNc2ncccn2)cc1O)C(=O)O [Example 69, (2S)-2-{[(allyloxy)carbonyl]amino}-3-({2-hydroxy-4-[2-(pyrimidin-2-ylamino)ethoxy]benzoyl}amino)propanoic acid] |
| 100 | C=CCCOC(=O)N[C@@H](CNC(=O)c1ccc(OCCNc2ncccn2)cc1O)C(=O)O [Example 70, (2S)-2-{[(but-3-enyloxy)carbonyl]amino}-3-({2-hydroxy-4-[2-(pyrimidin-2-ylamino)ethoxy]benzoyl}amino)propanoic acid] |
| 0.105 | CC(C)(C)COC(=O)N[C@@H](CNC(=O)c1ccc(OCCNC2=NCCN2)cc1O)C(=O)O [Example 95] |
